How the values were obtained:
[1] = molecular target: GluN1-GluN2A NMDAR subtype (Homo sapiens, UniProt Q05586+Q12879); assay: FLIPR/Ca2+ assay, NMDAR GluN1-GluN2A subtype in CHO cells; format: cell-based; settings: CHO cells, 10 μM L-glutamate and 10 μM glycine; n.d. = 50% of inhibition could not be reached at the highest concentration used
Procedure: (§1) These compounds were assessed for their effects on specific heterodimeric NMDAR subtypes stably overexpressed in Chinese Hamster Ovary (CHO) cells. The subtypes tested included GluN1-GluN2A, GluN1-GluN2B, GluN1-GluN2C, and GluN1-GluN2D. CHO cells expressing each of the four NMDAR subtypes were incubated with 10 μM L-glutamate, a concentration known to elicit maximal Ca^2+ influx, serving as the stimulus. Intracellular Ca^2+ levels were subsequently measured to determine the extent of NMDAR activation.
(§2) Assay buffer composition was 145 mM NaCl, 5 mM KCl, 2 mM CaCl2, 1 g/Liter D-(+)-glucose, and 20 mM HEPES (pH 7.3 adjusted with NaOH). Cells were plated at a density of 15.000/well in 384 black/clear bottom plates. […] Cells were kept at 30 °C in 5% CO2 incubator for 24 h. Cells were preloaded for 1 h with 2 μM Fluo-4 Ca^2+-sensitive probe, simultaneously with 2.5 mM probenecid, an inhibitor of nonspecific anion transport, and 500 μM ketamine to avoid cytotoxicity. […] Intracellular Ca^2+ level was monitored by FLIPR (excitation wavelength at 470–495 nm, emission wavelength at 515–575 nm) for 10 s before and 5 min after the addition of test items. All test items, including L-glutamate and glycine, were added simultaneously. […] FLIPR data were normalized as 100%, in the presence of 10 μM L-glutamate and 10 μM glycine, while as 0%, in the presence of assay buffer. […] Then, data were normalized by Excel 2013 (Microsoft Office) software, using wells added with 10 μM L-glutamate plus 10 μM glycine (column 23) as high control, and wells added with assay buffer only (column 24) as low control. To assess plate quality, Z′ calculations were performed in Excel. Z′ was calculated according to following equation: Z′ = 1–3(σh + σl)/|μh – μL| where μ and σ are the means and the standard deviations of the means of high (h) and low (l) controls, respectively. Compound concentration–response curves were plotted by Prism 8 GraphPad software, in the different experimental conditions (see Supporting Information). Data were analyzed using least-squares regression fitting, to fit data to a standard four parameters logistic equation using GraphPad Prism10. This regression fitting allowed the calculation of pIC50 and the corresponding SEM.

[2] = molecular target: T1, GluN1-GluN2B NMDAR subtype (Homo sapiens, UniProt Q05586+Q13224); assay: FLIPR/Ca2+ assay, NMDAR GluN1-GluN2B subtype in CHO cells; format: cell-based; settings: CHO cells, 10 μM L-glutamate and 10 μM glycine; n.d. = 50% of inhibition could not be reached at the highest concentration used
T1 construct: host or cells: NR1-2B-CHO cells, constitutive expression
Procedure: as §1, §2

[3] = molecular target: GluN1-GluN2C NMDAR subtype (Homo sapiens, UniProt Q05586+Q14957); assay: FLIPR/Ca2+ assay, NMDAR GluN1-GluN2C subtype in CHO cells; format: cell-based; settings: CHO cells, 10 μM L-glutamate and 10 μM glycine; n.d. = 50% of inhibition could not be reached at the highest concentration used
Procedure: as §1, §2

[4] = molecular target: GluN1-GluN2D NMDAR subtype (Homo sapiens, UniProt O15399+Q05586); assay: FLIPR/Ca2+ assay, NMDAR GluN1-GluN2D subtype in CHO cells; format: cell-based; settings: CHO cells, 10 μM L-glutamate and 10 μM glycine; n.d. = 50% of inhibition could not be reached at the highest concentration used
GluN1-GluN2D NMDAR subtype, sequence (O15399 28-1336, other chains not shown): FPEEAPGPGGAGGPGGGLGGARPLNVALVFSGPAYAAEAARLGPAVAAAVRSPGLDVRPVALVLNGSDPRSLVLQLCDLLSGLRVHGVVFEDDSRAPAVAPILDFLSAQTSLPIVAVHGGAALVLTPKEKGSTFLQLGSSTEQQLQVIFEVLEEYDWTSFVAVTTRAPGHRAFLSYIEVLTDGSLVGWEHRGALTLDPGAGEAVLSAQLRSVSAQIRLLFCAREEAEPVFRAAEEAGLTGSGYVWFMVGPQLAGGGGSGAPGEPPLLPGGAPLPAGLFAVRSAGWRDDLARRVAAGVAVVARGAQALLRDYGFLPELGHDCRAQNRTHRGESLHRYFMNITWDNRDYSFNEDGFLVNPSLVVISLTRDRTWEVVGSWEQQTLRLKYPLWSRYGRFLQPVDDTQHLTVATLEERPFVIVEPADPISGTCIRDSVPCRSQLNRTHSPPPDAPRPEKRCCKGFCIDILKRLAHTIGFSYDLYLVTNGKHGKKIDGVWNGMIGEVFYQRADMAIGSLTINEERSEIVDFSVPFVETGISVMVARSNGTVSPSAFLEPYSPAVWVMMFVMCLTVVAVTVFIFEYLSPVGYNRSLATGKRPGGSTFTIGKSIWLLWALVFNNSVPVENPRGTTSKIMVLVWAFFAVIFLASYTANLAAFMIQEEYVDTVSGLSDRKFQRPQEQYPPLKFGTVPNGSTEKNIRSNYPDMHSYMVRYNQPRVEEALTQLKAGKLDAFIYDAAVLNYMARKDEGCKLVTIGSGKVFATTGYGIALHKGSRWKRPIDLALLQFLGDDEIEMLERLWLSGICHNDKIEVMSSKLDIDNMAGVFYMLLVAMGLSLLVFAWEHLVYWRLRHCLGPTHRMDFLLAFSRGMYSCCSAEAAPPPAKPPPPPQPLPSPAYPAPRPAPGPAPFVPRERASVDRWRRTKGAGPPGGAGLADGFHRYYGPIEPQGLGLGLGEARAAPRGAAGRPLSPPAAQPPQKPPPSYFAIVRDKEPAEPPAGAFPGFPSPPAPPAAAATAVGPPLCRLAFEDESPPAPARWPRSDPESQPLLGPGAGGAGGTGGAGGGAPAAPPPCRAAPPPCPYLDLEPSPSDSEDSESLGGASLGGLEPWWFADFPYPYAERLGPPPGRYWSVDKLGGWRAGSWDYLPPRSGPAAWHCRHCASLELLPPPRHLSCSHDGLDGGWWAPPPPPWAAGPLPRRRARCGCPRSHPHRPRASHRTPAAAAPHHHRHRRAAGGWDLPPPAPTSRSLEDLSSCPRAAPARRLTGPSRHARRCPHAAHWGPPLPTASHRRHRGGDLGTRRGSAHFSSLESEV
Procedure: as §1, §2

[5] = system: Glutamate, NMDA, Phencyclidine binding site; assay: Radioligand displacement binding assay, [3H]TCP, NMDA; design: species or system Wistar rat
Histamine H1 = molecular target: T2, Histamine H1 (Homo sapiens, UniProt P35367); assay: Radioligand displacement binding assay, [3H]pyrilamine, H1
T2 construct: host or cells: CHO-K1

Muscarinic M5 = molecular target: T3, Muscarinic M5 (Homo sapiens, UniProt P08912); assay: Radioligand displacement binding assay, [3H]N-methylscopolamine, M5
T3 construct: host or cells: CHO-K1
T3 sequence (P08912 1-532): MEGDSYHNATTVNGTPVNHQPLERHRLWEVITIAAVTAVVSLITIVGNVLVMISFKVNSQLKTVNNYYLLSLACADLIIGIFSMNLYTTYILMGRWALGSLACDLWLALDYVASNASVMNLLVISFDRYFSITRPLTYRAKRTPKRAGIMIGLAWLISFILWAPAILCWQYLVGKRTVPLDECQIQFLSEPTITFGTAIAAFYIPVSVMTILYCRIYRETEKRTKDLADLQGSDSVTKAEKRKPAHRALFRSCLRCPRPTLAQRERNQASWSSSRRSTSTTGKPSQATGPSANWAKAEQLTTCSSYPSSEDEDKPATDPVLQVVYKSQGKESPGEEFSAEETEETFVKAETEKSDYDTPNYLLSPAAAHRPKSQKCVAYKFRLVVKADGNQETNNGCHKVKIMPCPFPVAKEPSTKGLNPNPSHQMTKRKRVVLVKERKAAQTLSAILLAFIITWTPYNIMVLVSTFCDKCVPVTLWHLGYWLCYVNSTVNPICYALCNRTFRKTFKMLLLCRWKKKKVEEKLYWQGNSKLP

μ opioid receptor (MOP) = molecular target: T4, μ opioid receptor (MOP) (Homo sapiens, UniProt P35372); assay: biochemical; format: binding; settings: for inhibition at 0.3 µM / inhibition at 3 µM: read-out: % inhibition of binding, MOP
T4 construct: host or cells: CHO-K1
T4 sequence (P35372 whole entry): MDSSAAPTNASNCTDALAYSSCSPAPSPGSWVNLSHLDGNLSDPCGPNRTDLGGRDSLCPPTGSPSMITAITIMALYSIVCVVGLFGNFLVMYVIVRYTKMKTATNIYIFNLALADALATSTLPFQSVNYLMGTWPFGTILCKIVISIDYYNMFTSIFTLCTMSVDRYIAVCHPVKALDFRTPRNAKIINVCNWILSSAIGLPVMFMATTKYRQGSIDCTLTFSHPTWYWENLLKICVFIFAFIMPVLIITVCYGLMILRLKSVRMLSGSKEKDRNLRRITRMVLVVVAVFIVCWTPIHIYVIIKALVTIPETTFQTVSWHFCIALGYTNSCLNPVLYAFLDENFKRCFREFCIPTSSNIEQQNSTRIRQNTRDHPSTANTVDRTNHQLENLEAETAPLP

Serotonin 5-HT1A = molecular target: T5, Serotonin 5-HT1A (Homo sapiens, UniProt P08908); assay: Radioligand displacement binding assay, [3H]8-OH-DPAT, 5-HT1A
T5 construct: host or cells: CHO-K1
T5 sequence (P08908 1-422): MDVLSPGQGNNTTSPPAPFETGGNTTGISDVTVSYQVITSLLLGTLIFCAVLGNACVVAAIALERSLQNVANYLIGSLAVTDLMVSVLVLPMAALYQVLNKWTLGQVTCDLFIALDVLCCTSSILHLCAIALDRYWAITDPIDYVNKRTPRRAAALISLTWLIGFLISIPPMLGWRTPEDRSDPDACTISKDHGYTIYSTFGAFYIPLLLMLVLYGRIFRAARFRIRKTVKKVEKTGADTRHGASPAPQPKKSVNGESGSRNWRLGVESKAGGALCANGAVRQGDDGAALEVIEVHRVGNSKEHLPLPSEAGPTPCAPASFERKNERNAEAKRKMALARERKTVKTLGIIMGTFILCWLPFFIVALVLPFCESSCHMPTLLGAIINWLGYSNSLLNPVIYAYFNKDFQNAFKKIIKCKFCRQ

Serotonin 5-HT2A = molecular target: T6, Serotonin 5-HT2A (Homo sapiens, UniProt P28223); assay: Radioligand displacement binding assay, [3H]ketanserin, 5-HT2A
T6 construct: host or cells: CHO-K1
T6 sequence (P28223 whole entry): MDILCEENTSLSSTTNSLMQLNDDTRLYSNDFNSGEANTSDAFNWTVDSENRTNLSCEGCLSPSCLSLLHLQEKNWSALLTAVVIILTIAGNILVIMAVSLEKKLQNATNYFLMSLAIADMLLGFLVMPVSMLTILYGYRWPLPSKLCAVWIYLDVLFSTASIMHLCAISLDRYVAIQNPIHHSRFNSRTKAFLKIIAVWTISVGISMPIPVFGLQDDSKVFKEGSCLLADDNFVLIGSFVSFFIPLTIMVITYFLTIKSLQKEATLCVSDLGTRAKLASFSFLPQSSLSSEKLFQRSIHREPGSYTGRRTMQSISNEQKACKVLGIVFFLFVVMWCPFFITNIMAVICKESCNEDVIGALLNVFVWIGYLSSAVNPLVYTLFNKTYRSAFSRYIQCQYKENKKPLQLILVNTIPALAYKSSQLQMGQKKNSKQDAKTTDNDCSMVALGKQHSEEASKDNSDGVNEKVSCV

Serotonin 5-HT2C = molecular target: T7, Serotonin 5-HT2C (Homo sapiens, UniProt P28335); assay: Radioligand displacement binding assay, [3H]mesulergine, 5-HT2C
T7 construct: host or cells: CHO-K1
T7 sequence (P28335 33-458): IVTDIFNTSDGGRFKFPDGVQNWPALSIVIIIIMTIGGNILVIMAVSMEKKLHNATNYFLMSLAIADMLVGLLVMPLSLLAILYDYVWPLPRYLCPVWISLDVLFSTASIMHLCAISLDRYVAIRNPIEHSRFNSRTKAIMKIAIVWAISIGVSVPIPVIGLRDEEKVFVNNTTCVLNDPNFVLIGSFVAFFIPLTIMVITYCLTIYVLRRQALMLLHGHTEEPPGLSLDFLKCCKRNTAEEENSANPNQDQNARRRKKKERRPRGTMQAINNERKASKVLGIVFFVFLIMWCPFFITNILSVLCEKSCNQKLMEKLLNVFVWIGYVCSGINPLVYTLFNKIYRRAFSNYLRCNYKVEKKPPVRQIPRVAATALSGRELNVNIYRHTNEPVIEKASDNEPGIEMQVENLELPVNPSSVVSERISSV

Serotonin 5-HT5A = molecular target: T8, Serotonin 5-HT5A (Homo sapiens, UniProt P47898); assay: Radioligand displacement binding assay, [3H]LSD, 5-HT5A
T8 construct: host or cells: CHO-K1

Serotonin 5-HT7 = molecular target: T9, Serotonin 5-HT7 (Homo sapiens, UniProt P34969); assay: Radioligand displacement binding assay, [3H]LSD, 5-HT7
T9 construct: host or cells: CHO-K1
T9 sequence (P34969 whole entry): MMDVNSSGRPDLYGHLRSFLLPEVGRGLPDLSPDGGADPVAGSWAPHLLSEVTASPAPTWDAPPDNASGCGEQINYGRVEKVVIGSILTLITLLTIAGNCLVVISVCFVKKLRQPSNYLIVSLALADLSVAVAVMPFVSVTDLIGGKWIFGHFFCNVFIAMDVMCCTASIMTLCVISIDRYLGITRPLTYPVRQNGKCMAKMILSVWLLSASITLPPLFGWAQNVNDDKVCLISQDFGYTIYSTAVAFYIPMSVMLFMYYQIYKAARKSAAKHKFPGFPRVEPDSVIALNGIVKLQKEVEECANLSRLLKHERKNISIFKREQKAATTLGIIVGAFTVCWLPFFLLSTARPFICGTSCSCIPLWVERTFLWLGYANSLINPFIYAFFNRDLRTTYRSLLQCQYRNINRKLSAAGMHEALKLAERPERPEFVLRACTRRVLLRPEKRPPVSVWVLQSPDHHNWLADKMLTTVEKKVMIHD

Sigma σ1 = molecular target: T10, Sigma σ1 (Homo sapiens, UniProt Q99720); assay: Radioligand displacement binding assay, [3H]pentazocine, sigma σ1
T10 construct: Sigma σ1; Source: Human Jurkat cells; host or cells: Jurkat
T10 sequence (Q99720 whole entry): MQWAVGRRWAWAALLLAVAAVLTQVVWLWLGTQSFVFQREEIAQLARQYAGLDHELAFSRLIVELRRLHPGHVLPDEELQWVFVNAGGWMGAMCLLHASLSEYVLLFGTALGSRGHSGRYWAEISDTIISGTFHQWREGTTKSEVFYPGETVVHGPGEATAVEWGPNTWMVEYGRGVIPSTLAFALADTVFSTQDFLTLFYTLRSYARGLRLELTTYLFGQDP

[6] = molecular target: T11, Norepinephrine transporter NET (Homo sapiens, UniProt P23975); assay: Radioligand displacement binding assay, [125I]RTI-55, NET
T11 construct: host or cells: MDCK
T11 sequence (P23975 whole entry): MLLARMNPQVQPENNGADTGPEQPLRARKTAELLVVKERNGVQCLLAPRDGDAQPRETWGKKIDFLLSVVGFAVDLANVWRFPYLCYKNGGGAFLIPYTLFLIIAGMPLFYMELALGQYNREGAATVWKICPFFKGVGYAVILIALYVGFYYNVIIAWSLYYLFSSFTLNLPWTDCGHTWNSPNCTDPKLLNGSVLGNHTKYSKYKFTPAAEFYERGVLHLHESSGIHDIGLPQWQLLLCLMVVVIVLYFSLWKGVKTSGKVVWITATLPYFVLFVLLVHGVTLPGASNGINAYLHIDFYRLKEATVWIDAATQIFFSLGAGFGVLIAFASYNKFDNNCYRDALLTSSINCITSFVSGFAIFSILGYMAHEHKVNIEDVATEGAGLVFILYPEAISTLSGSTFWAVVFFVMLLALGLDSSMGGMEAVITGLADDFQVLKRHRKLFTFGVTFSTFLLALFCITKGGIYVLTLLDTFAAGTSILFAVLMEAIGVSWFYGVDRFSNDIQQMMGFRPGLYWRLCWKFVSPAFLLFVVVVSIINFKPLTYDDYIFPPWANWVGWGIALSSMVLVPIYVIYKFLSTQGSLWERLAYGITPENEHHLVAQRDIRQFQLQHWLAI

[7] = molecular target: T12, Serotonin transporter SERT (Homo sapiens, UniProt P31645); assay: Radioligand displacement binding assay, [3H]paroxetine, SERT; settings: for % inhibition of binding, SERT / inhibition at 10 µM: 10 μM
T12 construct: host or cells: HEK-293

GluN1-GluN2A NMDAR subtype, sequence (Q12879 23-1464, other chains not shown): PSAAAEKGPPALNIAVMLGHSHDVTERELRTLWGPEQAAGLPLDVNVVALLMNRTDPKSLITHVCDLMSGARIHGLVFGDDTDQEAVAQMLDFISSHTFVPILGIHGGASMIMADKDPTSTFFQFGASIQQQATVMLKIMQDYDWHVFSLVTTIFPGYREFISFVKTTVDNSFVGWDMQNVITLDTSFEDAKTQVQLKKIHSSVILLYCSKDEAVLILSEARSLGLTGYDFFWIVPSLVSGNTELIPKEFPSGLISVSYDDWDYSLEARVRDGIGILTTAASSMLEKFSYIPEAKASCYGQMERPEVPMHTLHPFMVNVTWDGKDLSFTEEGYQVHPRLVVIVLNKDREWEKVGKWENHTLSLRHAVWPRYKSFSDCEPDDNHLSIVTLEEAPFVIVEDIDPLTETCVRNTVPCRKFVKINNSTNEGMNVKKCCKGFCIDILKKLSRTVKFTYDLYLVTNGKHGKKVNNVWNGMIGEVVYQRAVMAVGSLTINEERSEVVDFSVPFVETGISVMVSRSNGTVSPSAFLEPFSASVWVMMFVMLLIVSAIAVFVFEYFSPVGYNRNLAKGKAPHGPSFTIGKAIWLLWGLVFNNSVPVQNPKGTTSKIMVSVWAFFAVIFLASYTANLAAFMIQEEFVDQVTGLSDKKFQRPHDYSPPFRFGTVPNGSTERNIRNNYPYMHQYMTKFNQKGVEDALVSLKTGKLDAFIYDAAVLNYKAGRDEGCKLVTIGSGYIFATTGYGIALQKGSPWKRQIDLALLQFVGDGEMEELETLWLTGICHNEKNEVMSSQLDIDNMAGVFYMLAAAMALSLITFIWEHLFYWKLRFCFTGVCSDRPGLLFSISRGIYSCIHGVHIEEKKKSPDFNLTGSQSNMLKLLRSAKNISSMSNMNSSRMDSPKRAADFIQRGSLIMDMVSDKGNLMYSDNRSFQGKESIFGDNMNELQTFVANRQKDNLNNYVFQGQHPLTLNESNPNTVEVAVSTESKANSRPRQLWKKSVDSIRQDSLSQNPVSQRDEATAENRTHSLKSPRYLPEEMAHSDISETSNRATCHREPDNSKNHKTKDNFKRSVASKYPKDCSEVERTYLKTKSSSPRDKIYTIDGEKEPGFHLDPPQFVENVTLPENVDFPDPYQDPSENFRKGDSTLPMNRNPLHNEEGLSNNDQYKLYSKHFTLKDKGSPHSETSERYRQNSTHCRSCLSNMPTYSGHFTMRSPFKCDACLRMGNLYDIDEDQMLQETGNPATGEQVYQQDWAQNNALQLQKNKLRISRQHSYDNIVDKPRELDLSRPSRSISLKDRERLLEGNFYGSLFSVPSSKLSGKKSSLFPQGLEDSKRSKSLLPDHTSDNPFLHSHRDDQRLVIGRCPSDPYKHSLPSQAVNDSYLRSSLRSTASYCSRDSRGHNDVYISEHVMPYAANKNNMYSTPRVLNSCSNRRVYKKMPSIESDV

Row | Structure (SMILES) | pIC50 (mean ± SEM) GluN1-GluN2A [1] | pIC50 (mean ± SEM) GluN1-GluN2B [2] | pIC50 (mean ± SEM) GluN1-GluN2C [3] | pIC50 (mean ± SEM) GluN1-GluN2D [4] | % inhibition of binding, NMDA ([5]; 1 μM) [%] | inhibition at 10 µM (Histamine H1) [%] | inhibition at 30 µM (Histamine H1) [%] | inhibition at 1 µM (Muscarinic M5) [%] | inhibition at 10 µM (Muscarinic M5) [%] | inhibition at 0.3 µM (μ opioid receptor (MOP)) [%] | inhibition at 3 µM (μ opioid receptor (MOP)) [%] | inhibition at 0.3 µM (Serotonin 5-HT1A) [%] | inhibition at 3 µM (Serotonin 5-HT1A) [%] | inhibition at 0.3 µM (Serotonin 5-HT2A) [%] | inhibition at 3 µM (Serotonin 5-HT2A) [%] | inhibition at 0.3 µM (Serotonin 5-HT2C) [%] | inhibition at 3 µM (Serotonin 5-HT2C) [%] | inhibition at 1 µM (Serotonin 5-HT5A) [%] | inhibition at 10 µM (Serotonin 5-HT5A) [%] | inhibition at 1 µM (Serotonin 5-HT7) [%] | further results
1 | CC[C@@H](O)C(C[C@H](C)N)(c1ccccc1)c1ccccc1 [(3R,6S)-DNML, (3R,6S)-6-amino-4,4-diphenylheptan-3-ol] | 4.6 ± 0.077 | 4.6 ± 0.062 | 5.1 ± 0.062 | 4.9 ± 0.093 | 12 | 4 | 19 | 9 | 13 | -3 | 26 | 1 | -1 | 6 | 9 | 3 | -1 | -1 | 16 | 14 | inhibition at 10 µM (Serotonin 5-HT7): 12%; inhibition at 0.3 µM (Sigma σ1): 17%; inhibition at 3 µM (Sigma σ1): 61%; inhibition at 1 µM [6]: 0%; inhibition at 10 µM [6]: 5%; inhibition at 1 µM [7]: 29%; % inhibition of binding, SERT [7]: displaced; inhibition at 10 µM [7]: 65%
2 | CC[C@@H](O)C(C[C@H](C)NC)(c1ccccc1)c1ccccc1 [(3R,6S)-NML, (3R,6S)-6-(methylamino)-4,4-diphenylheptan-3-ol] | 4.4 ± 0.037 | 4.5 ± 0.053 | 4.6 ± 0.046 | 4.7 ± 0.057 | 8 | 6 | 43 | 11 | 46 | 1 | 29 | 5 | 11 | 0 | 4 | -4 | 5 | -1 | 15 | 14 | % inhibition of binding, NMDA ([5]; 10 μM): 48%; inhibition at 10 µM (Serotonin 5-HT7): 28%; inhibition at 0.3 µM (Sigma σ1): 47%; inhibition at 3 µM (Sigma σ1): 80%; inhibition at 1 µM [6]: 10%; inhibition at 10 µM [6]: 14%; inhibition at 1 µM [7]: 12%; inhibition at 10 µM [7]: 45%
3 | CC[C@H](O)C(C[C@@H](C)N)(c1ccccc1)c1ccccc1 [(3S,6R)-DNML, (3S,6R)-6-amino-4,4-diphenylheptan-3-ol] | 4.5 ± 0.031 | 4.4 ± 0.042 | 4.6 ± 0.038 | 4.7 ± 0.061 | 8 | 15 | 28 | 12 | 39 | 9 | 23 | -11 | -1 | 9 | 10 | 9 | 27 | -1 | 11 | 8 | % inhibition of binding, NMDA ([5]; 10 μM): 38%; inhibition at 10 µM (Serotonin 5-HT7): 5%; inhibition at 0.3 µM (Sigma σ1): -4%; inhibition at 3 µM (Sigma σ1): 18%; inhibition at 1 µM [6]: 0%; inhibition at 10 µM [6]: 22%; inhibition at 1 µM [7]: 15%; inhibition at 10 µM [7]: 36%
4 | CC[C@H](O)C(C[C@@H](C)NC)(c1ccccc1)c1ccccc1 [(3S,6R)-NML, (3S,6R)-6-(methylamino)-4,4-diphenylheptan-3-ol] | 4.8 ± 0.050 | 4.6 ± 0.047 | 5.0 ± 0.049 | 5.0 ± 0.058 | -5 | 7 | 27 | 21 | 74 | 2 | 26 | -1 | -4 | -3 | 11 | 15 | 68 | 4 | 42 | 11 | % inhibition of binding, NMDA ([5]; 10 μM): 51%; pKi (mean ± SEM) [3H]TCP, NMDA ([5]; Wistar rat cerebral cortex, 4.0 nM [3H]TCP): 5.54 ± 0.09; pKi (mean ± SEM) [3H]diprenorphine, MOP (μ opioid receptor (MOP)): 5.55 ± 0.17; inhibition at 10 µM (Serotonin 5-HT7): 7%; inhibition at 0.3 µM (Sigma σ1): -1%; inhibition at 3 µM (Sigma σ1): 26%; inhibition at 1 µM [6]: 4%; inhibition at 10 µM [6]: 9%; inhibition at 1 µM [7]: 10%; % inhibition of binding, SERT [7]: displaced; inhibition at 10 µM [7]: 61%

Reference: PMC11912475 (Journal of Medicinal Chemistry, 2025)
